Experimental data as given in ChEMBL document CHEMBL3046568, “Synthesis, antimicrobial and DNA cleavage studies of some 4-aryloxymethylcoumarins obtained by reaction of 4-bromomethylcoumarins with bidentate nucleophiles” (2012).
≈ marks a conversion by molar mass, not a printed value. Calls of active or inactive are those of the source. The rule behind the calls is not given here.

Experiments:
Aspergillus niger [1] = assay: Induction of Aspergillus niger DNA cleavage at 50 ug after 2 hr by agarose gel electrophoresis
Enterococcus faecalis = assay: Antibacterial activity against Enterococcus faecalis MTCC 3382 after 24 hr by disk diffusion method; type: functional; conditions: for MIC: Enterococcus faecalis, MTCC 3382, 24 h
Pseudomonas aeruginosa = assay: Antibacterial activity against Pseudomonas aeruginosa MTCC 1034 after 24 hr by disk diffusion method; type: functional; conditions: for MIC: Pseudomonas aeruginosa, MTCC 1034, 24 h
Staphylococcus aureus [2] = assay: Induction of Staphylococcus aureus MTCC 3160 DNA cleavage at 50 ug after 2 hr by agarose gel electrophoresis
Klebsiella pneumoniae = assay: Antibacterial activity against Klebsiella pneumoniae MTCC 3384 after 24 hr by disk diffusion method; type: functional; conditions: for MIC: Klebsiella pneumoniae, MTCC 3384, 24 h
Bacillus subtilis = assay: Antibacterial activity against Bacillus subtilis MTCC 297 after 24 hr by disk diffusion method; type: functional; conditions: for MIC: Bacillus subtilis, MTCC 297, 24 h
Aspergillus niger [3] = assay: Antifungal activity against Aspergillus niger after 3 to 4 days by serial dilution method; type: functional; conditions: for MIC: Aspergillus niger
Aspergillus fumigatus = assay: Antifungal activity against Aspergillus fumigatus after 3 to 4 days by serial dilution method; type: functional; conditions: for MIC: Aspergillus fumigatus
Penicillium chrysogenum = assay: Antifungal activity against Penicillium chrysogenum after 3 to 4 days by serial dilution method; type: functional; conditions: for MIC: Penicillium chrysogenum
Escherichia coli [4] = assay: Antibacterial activity against Escherichia coli MTCC 1089 after 24 hr by disk diffusion method; type: functional; conditions: for MIC: Escherichia coli, MTCC 1089, 24 h
Fusarium oxysporum = assay: Antifungal activity against Fusarium oxysporum after 3 to 4 days by serial dilution method; type: functional; conditions: for MIC: Fusarium oxysporum
Mucor fuscus = assay: Antifungal activity against Mucor fuscus after 3 to 4 days by serial dilution method; type: functional; conditions: for MIC: Mucor fuscus
Staphylococcus aureus [5] = assay: Antibacterial activity against Staphylococcus aureus MTCC 3160 after 24 hr by disk diffusion method; type: functional; conditions: for MIC: Staphylococcus aureus, MTCC 3160, 24 h
Escherichia coli [6] = assay: Induction of Escherichia coli MTCC 1089 DNA cleavage at 50 ug after 2 hr by agarose gel electrophoresis
Candida albicans = assay: Antifungal activity against Candida albicans after 3 to 4 days by serial dilution method; type: functional; conditions: for MIC: Candida albicans

Activity (Aspergillus niger [1]) | MIC (Enterococcus faecalis) | MIC (Pseudomonas aeruginosa) | Activity (Staphylococcus aureus [2]) | MIC (Klebsiella pneumoniae) | MIC (Bacillus subtilis) | MIC (Aspergillus niger [3]) | MIC (Aspergillus fumigatus) | MIC (Penicillium chrysogenum) | MIC (Escherichia coli [4]) | MIC (Fusarium oxysporum) | MIC (Mucor fuscus) | SMILES | inhibition zone (IZ) (Enterococcus faecalis) | inhibition zone (IZ) (Pseudomonas aeruginosa) | inhibition zone (IZ) (Klebsiella pneumoniae) | inhibition zone (IZ) (Bacillus subtilis) | inhibition zone (IZ) (Aspergillus niger [3]) | inhibition zone (IZ) (Aspergillus fumigatus) | inhibition zone (IZ) (Penicillium chrysogenum) | inhibition zone (IZ) (Mucor fuscus) | also measured
inactive | 25 µg/mL (≈ 69.6 µM) | 12.5 µg/mL (≈ 34.8 µM) | inactive | 12.5 µg/mL (≈ 34.8 µM) | 25 µg/mL (≈ 69.6 µM) | 6.25 µg/mL (≈ 17.4 µM) | 12.5 µg/mL (≈ 34.8 µM) | 12.5 µg/mL (≈ 34.8 µM) | 25 µg/mL (≈ 69.6 µM) | 25 µg/mL (≈ 69.6 µM) | 25 µg/mL (≈ 69.6 µM) | CC(=O)Nc1cccc(OCc2cc(=O)oc3ccc4ccccc4c23)c1 | 10 mm | 18 mm | 15 mm | 11 mm | 19 mm | 17 mm | 18 mm | 15 mm | inhibition zone (IZ) (Escherichia coli [4]): 13 mm; inhibition zone (IZ) (Fusarium oxysporum): 12 mm; inhibition zone (IZ) (Staphylococcus aureus [5]): 13 mm; MIC (Staphylococcus aureus [5]): 12.5 µg/mL (≈ 34.8 µM); Activity (Escherichia coli [6]): inactive; inhibition zone (IZ) (Candida albicans): 15 mm; MIC (Candida albicans): 12.5 µg/mL (≈ 34.8 µM)
Active | 6.25 µg/mL (≈ 18 µM) | 6.25 µg/mL (≈ 18 µM) | Active | 6.25 µg/mL (≈ 18 µM) | 6.25 µg/mL (≈ 18 µM) | 6.25 µg/mL (≈ 18 µM) | 12.5 µg/mL (≈ 36 µM) | 6.25 µg/mL (≈ 18 µM) | 12.5 µg/mL (≈ 36 µM) | 25 µg/mL (≈ 72 µM) | 12.5 µg/mL (≈ 36 µM) | O=c1cc(COc2cccc(O)c2)c2cc(Br)ccc2o1 | 18 mm | 23 mm | 19 mm | 17 mm | 21 mm | 18 mm | 19 mm | 18 mm | inhibition zone (IZ) (Escherichia coli [4]): 15 mm; inhibition zone (IZ) (Fusarium oxysporum): 13 mm; inhibition zone (IZ) (Staphylococcus aureus [5]): 19 mm; MIC (Staphylococcus aureus [5]): 6.25 µg/mL (≈ 18 µM); Activity (Escherichia coli [6]): Active; inhibition zone (IZ) (Candida albicans): 17 mm; MIC (Candida albicans): 6.25 µg/mL (≈ 18 µM)

Further lines, the molecule ahead of its results:

SMILES | Activity (Aspergillus niger [1]) | MIC (Enterococcus faecalis) | MIC (Pseudomonas aeruginosa) | Activity (Staphylococcus aureus [2]) | MIC (Klebsiella pneumoniae) | MIC (Bacillus subtilis) | MIC (Aspergillus niger [3]) | MIC (Aspergillus fumigatus) | MIC (Penicillium chrysogenum) | MIC (Escherichia coli [4]) | MIC (Fusarium oxysporum) | MIC (Mucor fuscus) | inhibition zone (IZ) (Enterococcus faecalis) | inhibition zone (IZ) (Pseudomonas aeruginosa) | inhibition zone (IZ) (Klebsiella pneumoniae) | inhibition zone (IZ) (Bacillus subtilis) | inhibition zone (IZ) (Aspergillus niger [3]) | inhibition zone (IZ) (Aspergillus fumigatus) | inhibition zone (IZ) (Penicillium chrysogenum) | inhibition zone (IZ) (Mucor fuscus) | also measured
O=c1cc(COc2cccc(OCc3cc(=O)oc4c3ccc3ccccc34)c2)c2ccc3ccccc3c2o1 | inactive | 25 µg/mL (≈ 47.5 µM) | 12.5 µg/mL (≈ 23.7 µM) | inactive | 6.25 µg/mL (≈ 11.9 µM) | 25 µg/mL (≈ 47.5 µM) | 12.5 µg/mL (≈ 23.7 µM) | 12.5 µg/mL (≈ 23.7 µM) | 25 µg/mL (≈ 47.5 µM) | 25 µg/mL (≈ 47.5 µM) | 25 µg/mL (≈ 47.5 µM) | 25 µg/mL (≈ 47.5 µM) | 12 mm | 17 mm | 16 mm | 11 mm | 15 mm | 15 mm | 14 mm | 14 mm | inhibition zone (IZ) (Escherichia coli [4]): 12 mm; inhibition zone (IZ) (Fusarium oxysporum): 14 mm; inhibition zone (IZ) (Staphylococcus aureus [5]): 11 mm; MIC (Staphylococcus aureus [5]): 25 µg/mL (≈ 47.5 µM); Activity (Escherichia coli [6]): inactive; inhibition zone (IZ) (Candida albicans): 13 mm; MIC (Candida albicans): 12.5 µg/mL (≈ 23.7 µM)
O=c1cc(COc2cccc(OCc3cc(=O)oc4ccc(Br)cc34)c2)c2cc(Br)ccc2o1 | Active | 6.25 µg/mL (≈ 10.7 µM) | 6.25 µg/mL (≈ 10.7 µM) | Active | 6.25 µg/mL (≈ 10.7 µM) | 6.25 µg/mL (≈ 10.7 µM) | 6.25 µg/mL (≈ 10.7 µM) | 12.5 µg/mL (≈ 21.4 µM) | 12.5 µg/mL (≈ 21.4 µM) | 12.5 µg/mL (≈ 21.4 µM) | 25 µg/mL (≈ 42.8 µM) | 12.5 µg/mL (≈ 21.4 µM) | 19 mm | 21 mm | 17 mm | 16 mm | 19 mm | 18 mm | 18 mm | 18 mm | inhibition zone (IZ) (Escherichia coli [4]): 14 mm; inhibition zone (IZ) (Fusarium oxysporum): 13 mm; inhibition zone (IZ) (Staphylococcus aureus [5]): 17 mm; MIC (Staphylococcus aureus [5]): 6.25 µg/mL (≈ 10.7 µM); Activity (Escherichia coli [6]): Active; inhibition zone (IZ) (Candida albicans): 17 mm; MIC (Candida albicans): 6.25 µg/mL (≈ 10.7 µM)
Cc1ccc2c(COc3cccc(OCc4cc(=O)oc5cc(C)ccc45)c3)cc(=O)oc2c1 | inactive | 12.5 µg/mL (≈ 27.5 µM) | 25 µg/mL (≈ 55 µM) | inactive | 12.5 µg/mL (≈ 27.5 µM) | 12.5 µg/mL (≈ 27.5 µM) | 12.5 µg/mL (≈ 27.5 µM) | 12.5 µg/mL (≈ 27.5 µM) | 25 µg/mL (≈ 55 µM) | > 100 µg/mL | > 100 µg/mL | 25 µg/mL (≈ 55 µM) | 16 mm | 14 mm | 13 mm | 14 mm | 16 mm | 17 mm | 15 mm | 15 mm | inhibition zone (IZ) (Staphylococcus aureus [5]): 12 mm; MIC (Staphylococcus aureus [5]): 25 µg/mL (≈ 55 µM); Activity (Escherichia coli [6]): inactive; inhibition zone (IZ) (Candida albicans): 8 mm; MIC (Candida albicans): 25 µg/mL (≈ 55 µM)
CCN(CC)c1cccc(OCc2cc(=O)oc3c2ccc2ccccc23)c1 | inactive | 12.5 µg/mL (≈ 33.5 µM) | 6.25 µg/mL (≈ 16.7 µM) | inactive | 12.5 µg/mL (≈ 33.5 µM) | 25 µg/mL (≈ 66.9 µM) | 12.5 µg/mL (≈ 33.5 µM) | 12.5 µg/mL (≈ 33.5 µM) | 12.5 µg/mL (≈ 33.5 µM) | 25 µg/mL (≈ 66.9 µM) | 25 µg/mL (≈ 66.9 µM) | 25 µg/mL (≈ 66.9 µM) | 14 mm | 19 mm | 16 mm | 11 mm | 17 mm | 15 mm | 17 mm | 13 mm | inhibition zone (IZ) (Escherichia coli [4]): 13 mm; inhibition zone (IZ) (Fusarium oxysporum): 13 mm; inhibition zone (IZ) (Staphylococcus aureus [5]): 14 mm; MIC (Staphylococcus aureus [5]): 12.5 µg/mL (≈ 33.5 µM); Activity (Escherichia coli [6]): inactive; inhibition zone (IZ) (Candida albicans): 14 mm; MIC (Candida albicans): 12.5 µg/mL (≈ 33.5 µM)
CC(=O)Nc1cccc(OCc2cc(=O)oc3c2ccc2ccccc23)c1 | inactive | 25 µg/mL (≈ 69.6 µM) | 6.25 µg/mL (≈ 17.4 µM) | inactive | 12.5 µg/mL (≈ 34.8 µM) | 12.5 µg/mL (≈ 34.8 µM) | 6.25 µg/mL (≈ 17.4 µM) | 12.5 µg/mL (≈ 34.8 µM) | 12.5 µg/mL (≈ 34.8 µM) | 25 µg/mL (≈ 69.6 µM) | 50 µg/mL (≈ 139 µM) | 12.5 µg/mL (≈ 34.8 µM) | 12 mm | 19 mm | 15 mm | 13 mm | 19 mm | 17 mm | 18 mm | 16 mm | inhibition zone (IZ) (Escherichia coli [4]): 13 mm; inhibition zone (IZ) (Fusarium oxysporum): 11 mm; inhibition zone (IZ) (Staphylococcus aureus [5]): 12 mm; MIC (Staphylococcus aureus [5]): 25 µg/mL (≈ 69.6 µM); Activity (Escherichia coli [6]): inactive; inhibition zone (IZ) (Candida albicans): 16 mm; MIC (Candida albicans): 12.5 µg/mL (≈ 34.8 µM)
